Results reported in patent US10004701B2, “Methods and compositions for treating infection” (UNIVERSITY OF ROCHESTER, priority 2012, dated 2018).
Counter-ions that a name gives are not always drawn. Like-named read-outs stand apart in the source and are kept apart here.

What was measured:
Experiment in all cases: AK assay 384-well format, Prestwick library screening
E. cloacae = format: cell-based, Enterobacter cloacae; settings: 50 μM final drug concentration; for fold induction at 50 µM: Enterobacter cloacae, 3 h
[1] = system: S. aureus strain USA300-0114; format: cell-based, Staphylococcus aureus; settings: 50 μM final drug concentration; for fold induction at 50 µM: Staphylococcus aureus, USA300, 3 h
[2] = system: A. baumannii strain 98-37-09; format: cell-based, Acinetobacter baumannii; settings: 50 μM final drug concentration; for fold induction at 50 µM: Acinetobacter baumannii, 983709, 3 h
P. aeruginosa = format: cell-based, Pseudomonas aeruginosa; settings: 50 μM final drug concentration; for fold induction at 50 µM: Pseudomonas aeruginosa, 3 h
E. coli = format: cell-based, Escherichia coli; settings: 50 μM final drug concentration; for fold induction at 50 µM: Escherichia coli, 3 h
E. faecium = format: cell-based, Enterococcus faecium; settings: 50 μM final drug concentration; for fold induction at 50 µM: Enterococcus faecium, 3 h
K. pneumoniae = format: cell-based, Klebsiella pneumoniae; settings: 50 μM final drug concentration; for fold induction at 50 µM: Klebsiella pneumoniae, 3 h
[3] = 384-well format, cutoff for positive-scoring molecules 3-fold increase

For Deptropine citrate, the “AK-based Prestwick library screening result, E. cloacae (fold increase in extracellular AK activity)” value (E. cloacae; planktonic E. cloacae, […]) was 1.6, the “AK-based Prestwick library screening result, S. aureus (fold increase in extracellular AK activity)” value ([1]; planktonic S. aureus, […]) was 1.1 and the “AK-based Prestwick library screening result, A. baumannii (fold increase in extracellular AK activity)” value ([2]; planktonic A. baumannii, […]) was 1.3. The “AK-based Prestwick library screening result, P. aeruginosa (fold increase in extracellular AK activity)” value (P. aeruginosa; planktonic P. aeruginosa, […]) was 1.0, the “AK-based Prestwick library screening result, E. coli (fold increase in extracellular AK activity)” value (E. coli; planktonic E. coli, […]) was 1.5 and the “AK-based Prestwick library screening result, E. faecium (fold increase in extracellular AK activity)” value (E. faecium; planktonic E. faecium, […]) was 1.1. For the same molecule, the “AK-based Prestwick library screening result, K. pneumoniae (fold increase in extracellular AK activity)” value (K. pneumoniae; planktonic K. pneumoniae, […]) was 0.9.
`CN[C@@H]1[C@@H](O[C@H]2O[C@H](CO)[C@@H](N)[C@H](O)[C@H]2O)OC2C[C@@H](N)[C@@H](O[C@H]3[C@H](O)[C@@H](O)[C@H](N)C[C@@H]3N)OC2[C@@H]1O` (some centres unmarked) [Apramycin] was tested, and the fold induction at 50 µM (E. cloacae; planktonic E. cloacae, positive cutoff 3-fold increase, read-out: AK-based Prestwick library screening result, E. cloacae (fold increase in extracellular AK activity)) was 1.4, the fold induction at 50 µM ([1]; planktonic S. aureus, positive cutoff 3-fold increase, read-out: AK-based Prestwick library screening result, S. aureus (fold increase in extracellular AK activity)) was 0.9 and the fold induction at 50 µM ([2]; planktonic A. baumannii, positive cutoff 3-fold increase, read-out: AK-based Prestwick library screening result, A. baumannii (fold increase in extracellular AK activity)) was 1. For the same molecule, the fold induction at 50 µM (P. aeruginosa; planktonic P. aeruginosa, positive cutoff 3-fold increase, read-out: AK-based Prestwick library screening result, P. aeruginosa (fold increase in extracellular AK activity)) was 1.1, the fold induction at 50 µM (E. coli; planktonic E. coli, positive cutoff 3-fold increase, read-out: AK-based Prestwick library screening result, E. coli (fold increase in extracellular AK activity)) was 1.2 and the fold induction at 50 µM (E. faecium; planktonic E. faecium, positive cutoff 3-fold increase, read-out: AK-based Prestwick library screening result, E. faecium (fold increase in extracellular AK activity)) was 1. It also gave a fold induction at 50 µM (K. pneumoniae; planktonic K. pneumoniae, positive cutoff 3-fold increase, read-out: AK-based Prestwick library screening result, K. pneumoniae (fold increase in extracellular AK activity)) of 0.8.
With `CCCCC[C@H](O)/C=C/[C@@H]1[C@@H](C/C=C\CCCC(=O)O)[C@@H](O)C[C@H]1O` [Dinoprost trometamol] the fold induction at 50 µM (E. cloacae; planktonic, cutoff for positive 3-fold increase, read-out: AK-based Prestwick Library Screening Results, E. cloacae (fold increase in extracellular AK activity)) was 1.1, the fold induction at 50 µM ([1]; planktonic, cutoff for positive 3-fold increase, read-out: AK-based Prestwick Library Screening Results, S. aureus (fold increase in extracellular AK activity)) was 1.4 and the fold induction at 50 µM ([2]; planktonic, cutoff for positive 3-fold increase, read-out: AK-based Prestwick Library Screening Results, A. baumannii (fold increase in extracellular AK activity)) was 1.2. It also gave a fold induction at 50 µM (P. aeruginosa; planktonic, cutoff for positive 3-fold increase, read-out: AK-based Prestwick Library Screening Results, P. aeruginosa (fold increase in extracellular AK activity)) of 1, a fold induction at 50 µM (E. coli; planktonic, cutoff for positive 3-fold increase, read-out: AK-based Prestwick Library Screening Results, E. coli (fold increase in extracellular AK activity)) of 1 and a fold induction at 50 µM (E. faecium; planktonic, cutoff for positive 3-fold increase, read-out: AK-based Prestwick Library Screening Results, E. faecium (fold increase in extracellular AK activity)) of 1. For the same molecule, the fold induction at 50 µM (K. pneumoniae; planktonic, cutoff for positive 3-fold increase, read-out: AK-based Prestwick Library Screening Results, K. pneumoniae (fold increase in extracellular AK activity)) was 1.
In the case of `Nc1cc(-c2ccncc2)c[nH]c1=O` [Amrinone], the fold induction at 50 µM (E. cloacae; cutoff for positive-scoring molecules 3-fold increase, read-out: AK-based Prestwick Library Screening Results, E. cloacae (fold increase in extracellular AK activity)) is reported as 44, the fold induction at 50 µM ([1]; cutoff for positive-scoring molecules 3-fold increase, read-out: AK-based Prestwick Library Screening Results, S. aureus (fold increase in extracellular AK activity)) is reported as 1.1 and the fold induction at 50 µM ([2]; cutoff for positive-scoring molecules 3-fold increase, read-out: AK-based Prestwick Library Screening Results, A. baumannii (fold increase in extracellular AK activity)) is reported as 1.2. The fold induction at 50 µM (P. aeruginosa; cutoff for positive-scoring molecules 3-fold increase, read-out: AK-based Prestwick Library Screening Results, P. aeruginosa (fold increase in extracellular AK activity)) was 1, the fold induction at 50 µM (E. coli; cutoff for positive-scoring molecules 3-fold increase, read-out: AK-based Prestwick Library Screening Results, E. coli (fold increase in extracellular AK activity)) was 1.3 and the fold induction at 50 µM (E. faecium; cutoff for positive-scoring molecules 3-fold increase, read-out: AK-based Prestwick Library Screening Results, E. faecium (fold increase in extracellular AK activity)) was 1. It also gave a fold induction at 50 µM (K. pneumoniae; cutoff for positive-scoring molecules 3-fold increase, read-out: AK-based Prestwick Library Screening Results, K. pneumoniae (fold increase in extracellular AK activity)) of 1.1.
For `CCN(CC)C(=S)SSC(=S)N(CC)CC` [Disulfiram], the fold induction at 50 µM (E. cloacae; 384-well format, […], read-out: AK-based Prestwick Library Screening Results, E. cloacae (increase in extracellular AK activity)) was 0.7, the fold induction at 50 µM ([1]; 384-well format, […], read-out: AK-based Prestwick Library Screening Results, S. aureus (increase in extracellular AK activity)) was 1.1 and the fold induction at 50 µM ([2]; 384-well format, […], read-out: AK-based Prestwick Library Screening Results, A. baumannii (increase in extracellular AK activity)) was 1. It also gave a fold induction at 50 µM (P. aeruginosa; 384-well format, […], read-out: AK-based Prestwick Library Screening Results, P. aeruginosa (increase in extracellular AK activity)) of 0.6, a fold induction at 50 µM (E. coli; 384-well format, […], read-out: AK-based Prestwick Library Screening Results, E. coli (increase in extracellular AK activity)) of 0.9 and a fold induction at 50 µM (E. faecium; 384-well format, […], read-out: AK-based Prestwick Library Screening Results, E. faecium (increase in extracellular AK activity)) of 1. For the same molecule, the fold induction at 50 µM (K. pneumoniae; 384-well format, […], read-out: AK-based Prestwick Library Screening Results, K. pneumoniae (increase in extracellular AK activity)) was 0.6.
`CC(C)(C)NCC(O)COc1cccc2c1CCC(=O)N2` (centres unmarked) [Carteolol hydrochloride] gave a fold induction at 50 µM (E. cloacae; planktonic E. cloacae, cutoff for positive-scoring molecules 3-fold increase, read-out: AK-based Prestwick Library Screening Results, E. cloacae (increase in extracellular AK activity)) of 1.1, a fold induction at 50 µM ([1]; planktonic S. aureus, cutoff for positive-scoring molecules 3-fold increase, read-out: AK-based Prestwick Library Screening Results, S. aureus (increase in extracellular AK activity)) of 1.1 and a fold induction at 50 µM ([2]; planktonic A. baumannii, cutoff for positive-scoring molecules 3-fold increase, read-out: AK-based Prestwick Library Screening Results, A. baumannii (increase in extracellular AK activity)) of 1. The fold induction at 50 µM (P. aeruginosa; planktonic P. aeruginosa, cutoff for positive-scoring molecules 3-fold increase, read-out: AK-based Prestwick Library Screening Results, P. aeruginosa (increase in extracellular AK activity)) was 1.1, the fold induction at 50 µM (E. coli; planktonic E. coli, cutoff for positive-scoring molecules 3-fold increase, read-out: AK-based Prestwick Library Screening Results, E. coli (increase in extracellular AK activity)) was 1.2 and the fold induction at 50 µM (E. faecium; planktonic E. faecium, cutoff for positive-scoring molecules 3-fold increase, read-out: AK-based Prestwick Library Screening Results, E. faecium (increase in extracellular AK activity)) was 1. It also gave a fold induction at 50 µM (K. pneumoniae; planktonic K. pneumoniae, cutoff for positive-scoring molecules 3-fold increase, read-out: AK-based Prestwick Library Screening Results, K. pneumoniae (increase in extracellular AK activity)) of 0.8.
In the case of `Nc1ccc(S(=O)(=O)Nc2cnc3ccccc3n2)cc1` [Sulfaquinoxaline sodium salt], the fold induction at 50 µM (E. cloacae; planktonic, cutoff for positive-scoring molecules 3-fold increase, read-out: AK-based Prestwick Library Screening Results, E. cloacae (fold increase in extracellular AK activity)) is reported as 0.8, the fold induction at 50 µM ([1]; planktonic, cutoff for positive-scoring molecules 3-fold increase, read-out: AK-based Prestwick Library Screening Results, S. aureus (fold increase in extracellular AK activity)) is reported as 0.7 and the fold induction at 50 µM ([2]; planktonic, cutoff for positive-scoring molecules 3-fold increase, read-out: AK-based Prestwick Library Screening Results, A. baumannii (fold increase in extracellular AK activity)) is reported as 1. It also gave a fold induction at 50 µM (P. aeruginosa; planktonic, cutoff for positive-scoring molecules 3-fold increase, read-out: AK-based Prestwick Library Screening Results, P. aeruginosa (fold increase in extracellular AK activity)) of 0.6, a fold induction at 50 µM (E. coli; planktonic, cutoff for positive-scoring molecules 3-fold increase, read-out: AK-based Prestwick Library Screening Results, E. coli (fold increase in extracellular AK activity)) of 0.6 and a fold induction at 50 µM (E. faecium; planktonic, cutoff for positive-scoring molecules 3-fold increase, read-out: AK-based Prestwick Library Screening Results, E. faecium (fold increase in extracellular AK activity)) of 0.9. For the same molecule, the fold induction at 50 µM (K. pneumoniae; planktonic, cutoff for positive-scoring molecules 3-fold increase, read-out: AK-based Prestwick Library Screening Results, K. pneumoniae (fold increase in extracellular AK activity)) was 0.6.
`c1ccc(CNc2ncnc3[nH]cnc23)cc1` [Aminopurine, 6-benzyl] was tested, and the “AK-based Prestwick Library Screening Results, E. cloacae (increase in extracellular AK activity)” value (E. cloacae; [3]) was 1.1, the “AK-based Prestwick Library Screening Results, S. aureus (increase in extracellular AK activity)” value [1, 3] was 0.7 and the “AK-based Prestwick Library Screening Results, A. baumannii (increase in extracellular AK activity)” value [2, 3] was 0.8. For the same molecule, the “AK-based Prestwick Library Screening Results, P. aeruginosa (increase in extracellular AK activity)” value (P. aeruginosa; [3]) was 0.9, the “AK-based Prestwick Library Screening Results, E. coli (increase in extracellular AK activity)” value (E. coli; [3]) was 0.9 and the “AK-based Prestwick Library Screening Results, E. faecium (increase in extracellular AK activity)” value (E. faecium; [3]) was 0.9. For the same molecule, the “AK-based Prestwick Library Screening Results, K. pneumoniae (increase in extracellular AK activity)” value (K. pneumoniae; [3]) was 0.8.
